Laboratory results reported in patent publication US11472798B2 (Mission Therapeutics Limited, priority 2014, dated 2022).

Each compound was assayed against T1, UCHL1 (Homo sapiens, UniProt P09936) (assay: UCHL1 biochemical IC50 assay (fluorescence polarisation)). Details: 30 min enzyme/compound pre-incubation at room temp, read after 2 hr incubation, read-out: Activity range (UCHL1 biochemical IC50 assay).
T1 construct: made in house; host or cells: HEK293T
T1 sequence (P09936 1-223): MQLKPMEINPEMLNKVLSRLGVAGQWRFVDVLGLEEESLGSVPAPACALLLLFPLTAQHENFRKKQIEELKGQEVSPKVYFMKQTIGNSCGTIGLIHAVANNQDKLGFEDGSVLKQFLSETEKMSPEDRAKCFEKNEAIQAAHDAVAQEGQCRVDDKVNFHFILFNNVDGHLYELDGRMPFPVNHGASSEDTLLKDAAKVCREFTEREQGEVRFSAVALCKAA
How it was run: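 Fluorescence polarisation (ex 540/em 590 nm) of 50 nM TAMRA-labelled ubiquitin–peptide isopeptide substrate was read at time zero and after 2 h at room temperature. Compounds (100–0.03 μM final, in duplicate) were given 30 min preincubation with N-FLAG UCHL1 from HEK293T cells in pH 7.5 Tris buffer.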

| Compound | IC50 [nM] |
| --- | --- |
| N#CN1CC[C@H](C(=O)Nc2cn(C3CCc4ccccc43)cn2)C1 (some centres unmarked) [Example 163] | < 1000 |
| N#CN1CC[C@H](C(=O)Nc2ncc(-c3ccccc3)s2)C1 [Example 1, (S)-1-cyano-N-(5-phenylthiazol-2-yl)pyrrolidine-3-carboxamide] | < 1000 |
| N#CN1CC[C@H](C(=O)Nc2nc3ccc(-c4ccccc4)cc3s2)C1 [Example 122, (S)-1-cyano-N-(6-phenylbenzo[d]thiazol-2-yl)pyrrolidine-3-carboxamide] | 1000 to 10000 |
| N#CN1CC[C@H](C(=O)Nc2ncc(N3CCc4ccccc4C3)s2)C1 [Example 98, (S)-1-cyano-N-(5-(3,4-dihydroisoquinolin-2(1H)-yl)thiazol-2-yl)pyrrolidine-3-carboxamide] | 1000 to 10000 |
| C[C@@H]1CN(C#N)C[C@H]1C(=O)Nc1ncc(-c2ccccc2Cl)s1 (racemic) [Example 84, (±)-trans-N-(5-(2-chlorophenyl)thiazol-2-yl)-1-cyano-4-methylpyrrolidine-3-carboxamide] | 1000 to 10000 |
| COc1ccc(-c2ccc3nc(NC(=O)[C@H]4CCN(C#N)C4)sc3c2)cc1 [Example 121, (S)-1-cyano-N-(6-(4-methoxyphenyl)benzo[d]thiazol-2-yl)pyrrolidine-3-carboxamide] | 1000 to 10000 |
| N#CN1CCC(C(=O)Nc2ccc(-c3ccccc3)nn2)C1 (centres unmarked) [Example 36, 1-cyano-N-(6-phenyl-pyridazin-3-yl)pyrrolidine-3-carboxamide] | 10000 to 30000 |
| N#CN1CCC(C(=O)Nc2ncc(-c3cccnc3)s2)C1 (centres unmarked) [Example 112, 1-cyano-N-(5-(pyridin-3-yl)thiazol-2-yl)pyrrolidine-3-carboxamide] | < 1000 |
| N#CN1CCC(C(=O)Nc2nnc(-c3ccccc3)s2)C1 (centres unmarked) [Example 11, 1-cyano-N-(5-phenyl-1,3,4-thiadiazol-2-yl)pyrrolidine-3-carboxamide] | 1000 to 10000 |
| COCC1(C(=O)Nc2ncc(-c3ccccc3)s2)CCN(C#N)C1 (centres unmarked) [Example 80, I-cyano-3-(methoxymethyl)-N-(5-phenylthiazol-2-yl)pyrrolidine-3-carboxamide] | 10000 to 30000 |
| N#CN1CCC(C(=O)Nc2ccc(-c3ccncc3)cn2)C1 (centres unmarked) [Example 34, N-([3,4′-bipyridin]-6-yl)-1-cyano-pyrrolidine-3-carboxamide] | 1000 to 10000 |
| N#CN1CCC(C(=O)Nc2ccc(N3CCOCC3)cn2)C1 (centres unmarked) [Example 28, 1-cyano-N-(5-morpholino-pyridin-2-yl)pyrrolidine-3-carboxamide] | 1000 to 10000 |
| Cc1cccc2nc(NC(=O)[C@H]3CCN(C#N)C3)sc12 [Example 47, (S)-1-cyano-N-(7-methylbenzo[d]thiazol-2-yl)-pyrrolidine-3-carboxamide] | < 1000 |
| N#CN1CCC(C(=O)Nc2nc3ccc(C4CC4)cc3s2)C1 (centres unmarked) [Example 130, 1-cyan-N-(6-cyclopropylbenzo[d]thiazol-2-yl)pyrrolidine-3-carboxamide] | < 1000 |
| N#CN1CC[C@H](C(=O)Nc2nc3ccc(-n4nccn4)cc3s2)C1 [Example 63, (S)-N-(6-(2H-1,2,3-triazol-2-yl)benzo[d]thiazol-2-yl)-1-cyano-pyrrolidine-3-carboxamide] | 1000 to 10000 |
| COC[C@@H]1CCCN1Cc1cnc(NC(=O)[C@H]2CCN(C#N)C2)s1 [Example 144, (S)-1-cyano-N-(5-(((S)-2-(methoxymethyl)pyrrolidin-1-yl)methyl)thiazol-2-yl)pyrrolidine-3-carboxamide] | 1000 to 10000 |
| N#CN1CC[C@H](C(=O)Nc2ncc(N3CCOCC3)s2)C1 [Example 91, (S)-1-cyano-N-(5-morpholinothiazol-2-yl)pyrrolidine-3-carboxamide] | < 1000 |
| CN(c1ccccc1)c1cnc(NC(=O)C2CCN(C#N)C2)s1 (centres unmarked) [Example 94, 1-cyano-N-(5-(methyl(phenyl)amino)thiazol-2-yl)pyrrolidine-3-carboxamide] | < 1000 |
| N#CN1CCC(C(=O)Nc2nc3ccccc3[nH]2)C1 (centres unmarked) [Example 23, N-(1H-benzo[d]imidazol-2-yl)-1-cyano-pyrrolidine-3-carboxamide] | 10000 to 30000 |

Continued, values first:

| IC50 [nM] | Compound |
| --- | --- |
| < 1000 | N#CN1CC[C@H](C(=O)Nc2cn(Cc3ccccn3)cn2)C1 [Example 168, (S)-1-cyano-N-(1-(pyridin-2-ylmethyl)-1H-imidazol-4-yl)pyrrolidine-3-carboxamide] |
| < 1000 | Cc1noc(C)c1-c1ccc2nc(NC(=O)[C@H]3CCN(C#N)C3)sc2n1 [Example 286, (S)-1-cyano-N-(5-(3,5-dimethylisoxazol-4-yl)thiazolo[5,4-b]pyridin-2-yl)pyrrolidine-3-carboxamide] |
| < 1000 | COC(=O)N1CCc2nc(NC(=O)[C@H]3CCN(C#N)C3)sc2C1 [Example 198, methyl (S)-2-(1-cyanopyrrolidine-3-carboxamido)-6,7-dihydrothiazolo[5,4-c]pyridine-5(4H)-carboxylate] |
| < 1000 | COc1ccccc1C(=O)N1CCc2nc(NC(=O)[C@H]3CCN(C#N)C3)sc2C1 [Example 192, (S)-1-cyano-N-(5-(2-methoxybenzoyl)-4,5,6,7-tetrahydrothiazolo[5,4-c]pyridin-2-yl)pyrrolidine-3-carboxamide] |
| < 1000 | N#CN1CC[C@H](C(=O)Nc2ncc(-c3ccc(Cl)c(C(N)=O)c3)s2)C1 [Example 237, (S)-N-(5-(3-carbamoyl-4-chlorophenyl)thiazol-2-yl)-1-cyanopyrrolidine-3-carboxamide] |
| < 1000 | N#Cc1ccc(-n2cnc(NC(=O)[C@H]3CCN(C#N)C3)c2)cc1 [Example 177, (S)-1-cyano-N-(1-(4-cyanophenyl)-1H-imidazol-4-yl)pyrrolidine-3-carboxamide] |
| < 1000 | CC(c1ccccc1)N(C)S(=O)(=O)c1ccc(NC(=O)[C@H]2CCN(C#N)C2)nc1 (stereo partly drawn) [Example 208, (3S)-1-cyano-N-(5-(N-methyl-N-(1-phenylethyl)sulfamoyl)pyridin-2-yl)pyrrolidine-3-carboxamide] |
| < 1000 | C#CCNC(=O)c1cc(-c2cnc(NC(=O)[C@H]3CCN(C#N)C3)s2)ccc1Cl [Example 239, (S)-N-(5-(4-chloro-3-(prop-2-yn-1-ylcarbarmoyl)phenyl)thiazol-2-yl)-1-cyanopyrrolidine-3-carboxamide] |
| < 1000 | N#CN1CC[C@H](C(=O)Nc2cn3cc(C(F)(F)F)ccc3n2)C1 [Example 270, (S)-1-cyano-N-(6-(trifluoromethyl)imidazo[1,2-a]pyridin-2-yl)pyrrolidine-3-carboxamide] |
| < 1000 | Cc1n[nH]c2cc(-n3cnc(NC(=O)[C@H]4CCN(C#N)C4)c3)ccc12 [Example 299, (S)-1-cyano-N-(1-(3-methyl-1H-indazol-6-yl)-1H-imidazol-4-yl)pyrrolidine-3-carboxamide] |
| < 1000 | C#Cc1cccc(-c2cnc(NC(=O)[C@H]3CCN(C#N)C3)s2)c1 [Example 206, (S)-1-cyano-N-(5-(3-ethynylphenyl)thiazol-2-yl)pyrrolidine-3-carboxamide] |
| < 1000 | N#Cc1ccc(-n2cnc(NC(=O)[C@H]3CCN(C#N)C3)c2)cc1OCCCN1CCOCC1 [Example 245, (S)-1-cyano-N-(1-(4-cyano-3-(3-morpholinopropoxy)phenyl)-1H-imidazol-4-yl)pyrrolidine-3-carboxamide] |
| < 1000 | CNC(=O)c1cccc(-c2cnc(NC(=O)[C@H]3CCN(C#N)C3)s2)n1 [Example 224, (S)-6-(2-(1-cyanopyrrolidine-3-carboxamido)thiazol-5-yl)-N-methylpicolinamide] |
| < 1000 | CN1CCCC(n2cnc(NC(=O)[C@H]3CCN(C#N)C3)c2)C1 (stereo partly drawn) [Example 187, (3S)-1-cyano-N-(1-(1-methylpiperidin-3-yl)-1H-imidazol-4-yl)pyrrolidine-3-carboxamide] |
| < 1000 | CN(C)S(=O)(=O)N1CCc2nc(NC(=O)[C@H]3CCN(C#N)C3)sc2C1 [Example 212, (S)-1-cyano-N-(5-(N,N-dimethylsulfamoyl)-4,5,6,7-tetrahydrothiazolo[5,4-c]pyridin-2-yl)pyrrolidine-3-carboxamide] |
| < 1000 | N#CN1CC[C@H](C(=O)Nc2cn(-c3ccc4cn[nH]c4c3)cn2)C1 [Example 301, (S)-N-(1-(1H-indazol-6-yl)-1H-imidazol-4-yl)-1-cyanopyrrolidine-3-carboxamide] |
| 1000 to 10000 | Cc1cccc(-n2cnc(NC(=O)[C@H]3CCN(C#N)C3)c2)n1 [Example 175, (S)-1-cyano-N-(1-(6-methylpyridin-2-yl)-1H-imidazol-4-yl)pyrrolidine-3-carboxamide] |
| < 1000 | N#CN1CC[C@H](C(=O)Nc2ncc(-c3ccc4cn[nH]c4c3)s2)C1 [Example 222, (S)-N-(5-(1H-indazol-6-yl)-2-yl)-1-cyanopyrrolidine-3-carboxamide] |
| < 1000 | N#CN1CC[C@H](C(=O)Nc2cn(C3CCN(C(=O)c4ccccc4)C3)cn2)C1 (stereo partly drawn) [Example 185, (3S)—N-(1-(1-benzoylpyrrolidin-3-yl)-1H-imidazol-4-yl)-1-cyanopyrrolidine-3-carboxamide] |
| < 1000 | CNC(=O)c1cc(-c2cnc(NC(=O)[C@H]3CCN(C#N)C3)s2)ccc1Cl [Example 238, (S)-N-(5-(4-chloro-3-(methylcarbamoyl)phenyl)thiazol-2-yl)-1-cyanopyrrolidine-3-carboxamide] |
| < 1000 | COc1cccc(-n2cnc(NC(=O)[C@H]3CCN(C#N)C3)c2)c1 [Example 183, (S)-1-cyano-N-(1-(3-methoxyphenyl)-1H-imidazol-4-yl)pyrrolidine-3-carboxamide] |
| < 1000 | C[C@@H]1CN(C#N)C[C@H]1C(=O)Nc1cn([C@@H](C)c2ccccc2)cn1 [Example 173, (3S,4S)-1-cyano-4-methyl-N-(1-((S)-1-phenylethyl)-1H-imidazol-4-yl)pyrrolidine-3-carboxamide] |
